For assay [1], the system named is E. coli MDR Cl 1057. Put plainly: Resistance induction by serial passages. The assay is classed as cell-based. Particulars: E. coli MDR Cl 1057, 0.9% NaCl-enriched Mueller–Hinton medium.
Experimental: One of them involves a series passage with suspension of a test strain and liquid medium containing an antibacterial agent at concentrations near the MIC, which progressively increases during the experiment until resistant mutants are enriched. Bacteria that grew at the highest concentration of drug are used in the final step of the test that determines the final MIC value [18].
The ability of peptides to induce bacterial resistance was assessed by the method of two-fold serial dilutions; this test was repeated every day. […] Next, on the second day, 2 μL of the bacterial suspension was taken from the well containing the sub-inhibitory concentration of the drug as close as possible to the MIC and diluted with 1 mL of the same media.
Assay [2] concerns E. coli 3421/E19. Put plainly: Neutropenic mice peritonitis model. It is filed as in vivo, BALB/c mice. The conditions noted are these: neutropenic BALB/c mice, CFU 5 h after treatment. As for the experimental part: Immune-deficient mice were inoculated intraperitoneally (i.p.) with bacterial suspension. Antimicrobial agent was administered 1 h post-infection, and colony counts in blood and peritoneal fluid (PF) were determined 5 h later.
(A) The mice peritonitis model. […] Horizontal bars indicate means ± SD.
Food and water were provided ad libitum.
CFU counts were determined from blood and peritoneal fluid (PF) 5 h after treatment. The mice were euthanized by CO2 asphyxiation and blood was collected by axillary cut down. A total of 2 mL sterile saline was injected i.p. and the abdomen gently massaged before it was opened, fluid sampled with a pipette, serially diluted and placed on Endo agar supplemented with 20 µg/mL of tetracycline for CFU identification.

Assay [3] concerns P. aeruginosa PAO1. Briefly: Inhibition of biofilm formation, crystal violet. The assay is classed as cell-based. The conditions noted are these: 24 h, LB, 32 °C. The source says:
Such an adaptive and survival mechanism is mediated by biofilms, which constitutes the community of sessile bacteria embedded within the self-produced extracellular polymeric substance (EPS) that defends them from chemical, biological, and physical stress; it also […] foreign invaders. Besides the fact that EPS decreases concentration of antibiotics, bacteria inside biofilm are characterized by a reduced rate of cell divisions, an increased expression of stress response genes, an occurrence of persistent cells, and exchange of resistance genes leading to a broader spread of tolerant biofilm-growing bacteria. For the treatment of biofilm-associated infections a high concentration of antibiotics is required that also increases toxicity toward human cells. Antimicrobial peptides are able to act on certain stages of biofilm formation and various molecular targets and are considered as promising candidates for the development of new antibiofilm agents. […] Bacterial biomass amount was evaluated using the standard crystal violet assay over a 24 h incubation period with each drug. […]
Masses of biofilms were evaluated by dying with 0.1% CV. […]
The ability of peptides to influence the formation of biofilms was evaluated by the method of two-fold serial dilutions in a liquid nutrient medium. […] Further, the extracts were transferred to a new plate and absorption was measured at 570 nm. […]

Assay [4] deals with P. aeruginosa PAO1 mature biofilms. Put plainly: Effect on mature biofilms, viability by MTT. Particulars: P. aeruginosa PAO1 pre-formed biofilm, 16 µM, 2-h exposure.
Experimental: Biofilm viability was measured by tetrazolium salt reduction (right panel). Values are presented as means ± the standard deviation (SD) of three independent experiments.
The effect of peptides on pre-formed biofilms was evaluated as follows. Biofilms were grown on a 96-well plate at 32 °C for 24 h and stirred at 120 rpm to ensure biofilm formation primarily on the wall of the wells. […] Bacterial survival in the biofilms after 2-h exposure was evaluated via a MTT assay after incubation with a tested peptide. Then, wells were rinsed with sterile water, treated with an MTT solution (Sigma, Kawasaki, Kanagawa, Japan) in PBS, and incubated for 4 h at 37 °C. Next, the medium was removed. The resulting formazan crystals were dissolved in a mixture of EtOH and DMSO (1:1) for 10 min. The optical density of the solution was measured at 570 nm. Bacterial survival was calculated as percent relative to samples without antimicrobial agent. All data were obtained from at least three independent experiments in 3 repetitions.

polymyxin B [reference compound]: the “Initial MIC in resistance induction experiment” value in assay [1] is recorded as 0.125 µM. Also, the “Bacterial burden in mice blood (in words)” value in assay [2] (n = 5, i.p. infection, single i.v. dose 1 h post-infection (AMPs 10 mg/kg, polymyxin B 5 mg/kg)) is recorded as “complete reduction”. Moreover, the “Reduction of the CFU level in peritoneal fluid (PF)” value in assay [2] (n = 5, single i.v. dose (AMPs 10 mg/kg, polymyxin B 5 mg/kg)) is given as ~ 5 log. Besides, the “Inhibition of biofilm formation (in words)” value in assay [3] is recorded as “modest inhibition of biofilm”. Also, the “Residual viability of bacteria in mature biofilm” value in assay [4] is given as “about 20%”.

Values taken from paper PMC9410094 (Marine Drugs, 2022).
